# Data reported in the supplement of paper PMC10307832.
# Assays:
# Experiment in all cases: relative viability (nuclei count vs DMSO), 5 days (fraction); higher = more cells survive
# Axitinib + Tozasertib = compound: CNC(=O)c1ccccc1Sc1ccc2c(/C=C/c3ccccn3)n[nH]c2c1 [Axitinib] + Cc1cc(Nc2cc(N3CCN(C)CC3)nc(Sc3ccc(NC(=O)C4CC4)cc3)n2)n[nH]1 [Tozasertib] (partner 0.1 µM)
# Procedure, shortened: (§1)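 Relative viability is defined as nuclei in treated wells over nuclei in vehicle wells. Duplicate plates were run and medians reported. Lung cancer cell lines in 1536-well plates were dosed by pin tool one day after seeding, with one drug or with a fixed anchor-drug dose plus five library-drug doses (not always all listed) in √10 steps, and nuclei were counted after 5 days.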
# [1] = compound: Nc1nc(Nc2ccc3c(c2)CC[C@@H](N2CCCC2)CC3)nn1-c1cc2c(nn1)-c1ccccc1CCC2 [Bemcentinib] + CC(=O)c1c(C)c2cnc(Nc3ccc(N4CCNCC4)cn3)nc2n(C2CCCC2)c1=O [Palbociclib] (partner 0.5 µM)
# Procedure, shortened: as §1
# Bemcentinib + Alpelisib = compound: Nc1nc(Nc2ccc3c(c2)CC[C@@H](N2CCCC2)CC3)nn1-c1cc2c(nn1)-c1ccccc1CCC2 [Bemcentinib] + Cc1nc(NC(=O)N2CCC[C@H]2C(N)=O)sc1-c1ccnc(C(C)(C)C(F)(F)F)c1 [Alpelisib] (partner 2 µM)
# Procedure, shortened: as §1
# Bemcentinib + Decitabine = compound: Nc1nc(Nc2ccc3c(c2)CC[C@@H](N2CCCC2)CC3)nn1-c1cc2c(nn1)-c1ccccc1CCC2 [Bemcentinib] + Nc1ncn([C@H]2C[C@H](O)[C@@H](CO)O2)c(=O)n1 [Decitabine] (partner 2 µM)
# Procedure, shortened: as §1
Cell Line,relative viability (Axitinib + Tozasertib; first compound 0.005 µM),relative viability (Axitinib + Tozasertib; first compound 0.01581 µM),relative viability (Axitinib + Tozasertib; first compound 0.05 µM),relative viability (Axitinib + Tozasertib; first compound 0.1581 µM),relative viability (Axitinib + Tozasertib; first compound 0.5 µM),relative viability ([1]; first compound 0.04 µM),relative viability ([1]; first compound 0.1265 µM),relative viability ([1]; first compound 0.4 µM),relative viability ([1]; first compound 1.265 µM),relative viability ([1]; first compound 4 µM),relative viability (Bemcentinib + Alpelisib; first compound 0.04 µM),relative viability (Bemcentinib + Alpelisib; first compound 0.1265 µM),relative viability (Bemcentinib + Alpelisib; first compound 0.4 µM),relative viability (Bemcentinib + Alpelisib; first compound 1.265 µM),relative viability (Bemcentinib + Alpelisib; first compound 4 µM),relative viability (Bemcentinib + Decitabine; first compound 0.04 µM),relative viability (Bemcentinib + Decitabine; first compound 0.1265 µM),relative viability (Bemcentinib + Decitabine; first compound 0.4 µM),relative viability (Bemcentinib + Decitabine; first compound 1.265 µM),relative viability (Bemcentinib + Decitabine; first compound 4 µM)
HCC-44,1.07,1.14,0.702,1.02,1.19,1.02,1.03,0.96,1.01,1.1,0.875,0.911,0.939,0.967,1.05,0.954,0.986,0.947,0.978,0.957
LOU-NH91,0.682,0.54,0.746,0.694,0.827,0.521,0.564,0.525,0.513,0.537,0.631,0.702,0.7,0.717,0.71,0.78,0.82,0.837,0.863,0.801
NCI-H3122,0.38,0.426,0.346,0.415,0.566,0.148,0.192,0.155,0.192,0.201,0.447,0.825,0.829,0.819,0.82,0.429,0.385,0.456,0.449,0.491
NCI-H1975,0.79,0.819,0.719,0.875,0.867,0.561,0.827,0.665,0.567,0.746,0.645,0.676,0.715,0.605,0.632,0.336,0.384,0.394,0.374,0.459
NCI-H661,0.351,0.363,0.363,0.359,0.371,0.384,0.385,0.439,0.375,0.382,0.374,0.821,0.624,0.358,0.599,0.558,0.654,0.547,0.57,0.557
NCI-H1651,0.853,0.701,0.73,0.876,0.877,0.528,0.542,0.528,0.576,0.512,0.935,1.01,1.12,0.964,1.02,0.588,0.623,0.678,0.491,0.584
NCI-H647,0.383,0.354,0.264,0.566,0.516,0.43,0.445,0.387,0.315,0.462,1.1,1.22,1.25,1.13,1.08,0.386,0.296,0.494,0.368,0.454
HCC-78,0.6,0.493,0.493,0.477,0.446,0.461,0.455,0.438,0.409,0.48,0.246,0.322,0.336,0.39,0.33,0.691,0.655,0.636,0.655,0.637
NCI-H2126,0.919,0.859,0.833,0.886,1,0.342,0.334,0.364,0.385,0.357,0.799,0.772,0.669,0.768,0.786,0.582,0.588,0.601,0.634,0.557
SK-LU-1,0.41,0.345,0.333,0.375,0.47,0.338,0.446,0.393,0.487,0.37,1.08,1.13,1.1,1.1,1.1,0.533,0.764,0.74,0.615,0.623
LC-2-ad,0.425,0.479,0.396,0.425,0.53,0.557,0.49,0.524,0.565,0.516,0.877,0.969,0.907,0.822,0.852,0.79,0.724,0.824,0.817,0.756
NCI-H23,0.421,0.431,0.442,0.44,0.8,0.443,0.472,0.558,0.457,0.519,0.725,0.745,0.814,0.758,0.806,0.305,0.302,0.297,0.31,0.328
SW 1573,0.169,0.214,0.166,0.178,0.249,0.395,0.407,0.416,0.391,0.364,0.716,0.803,0.909,0.886,0.88,0.427,0.55,0.595,0.544,0.468
HCC-15,0.461,0.564,0.435,0.49,0.605,0.767,0.976,0.739,0.728,0.737,0.886,0.945,0.97,0.92,0.889,0.641,0.696,0.71,0.646,0.661
H3255,0.721,0.642,0.589,0.541,1.2,0.283,0.305,0.297,0.275,0.334,0.63,0.71,0.713,0.61,0.703,,0.574,0.681,0.648,0.68
SK-MES-1,0.996,0.904,0.818,0.947,1.07,0.314,0.33,0.325,0.316,0.317,0.914,0.973,0.998,1.08,1.08,0.363,0.361,0.451,0.315,0.379
